Patent publication US11530213B2, “Naphthyridinone derivatives and their use in the treatment of arrhythmia” (NOVARTIS AG, priority 2016, dated 2022)

The molecules below were run against GIRK1/4 (Homo sapiens (Human), UniProt P48544+P48549) (assay: GIRK1/4 inhibition, Quattro (IonWorks) population patch clamp, inward potassium current in GIRK 1/4 HEK293 stable cells (test assay No. 1)). Settings: percentage of current inhibition normalized to DMSO-only control.
Type: cell-based
Procedure: The activity of a compound according to the present invention can be assessed by the following in vitro method. • 1. Buffers: • a. External buffer: 10 mM NaCl, 50 mM Na Gluconate, 80 mM K Gluconate, 1.8 mM CaCl2, 1 mM MgCl2, 10 mM HEPES, 10 mM Glucose, pH 7.4; osmolality […]. • b. Internal buffer: 30 mM KCl, 100 mM K Gluconate, 1 mM MgCl2, 10 mM HEPES, 1 mM EGTA, 10 mM NaCl, pH 7.2; osmolality […]. • 2. Compounds: • a. Prepare seven-fold compound dilution series (10 mM to 20 uM) in 100% DMSO, in 384-well polypropylene plates. • b. Propafenone (Sigma Aldrich, catalog number P4670) is used as a positive control and DMSO for neutral control • c. Resuspend 1 ul of compounds in DMSO into 65.7 ul external buffer in 384-well polypropylene plate and load into Plate 1 section of Molecular Devices Quattro • 3. Quattro setup: • a. Load 384-well Population Patch Plate (Molecular Devices #9000-0902) into Quattro • b. Fill Quattro F-soak trough with 20% DMSO and 50% EtOH • c. Fill Quattro buffer trough with external buffer • d. Attach internal buffer flask to Quattro internal buffer tubing • e. Attach PBS (Phosphate Buffered Saline, minus Ca^++ and Mg^++, pH7.4) bottle to F-head & E-head wash on Quattro • 4. Antibiotic: • a. Resuspend 5.6 mg amphotericin B (Sigma Aldrich, catalog number A2411) in 175 ul DMSO • b. Add the resulting solution to 50 ml internal buffer, mix and attach to antibiotic tubing port on Quattro • 5. Cells: • a. Use GIRK 1/4 HEK293 stable cells (obtained from ChanTest, 14656 Neo Parkway, Cleveland, Ohio 44128) grown to […] confluency in the following cell culture medium: DMEM containing 10% (v/v) Fetal Bovine Serum, Penicillin/Streptomycin (at “1×” concentration from a 100× stock), 0.5 mg/ml G418 and 0.1 mg/ml Zeocin. • b. Wash cells with PBS (minus Ca^++ and Mg^++), Detach cells using Detachin (Genlantis, 11011 Torreyana, San Diego, Calif. 92121), and resuspend in external buffer (5 ml final volume at 2.0-2.1×10^6 cells/ml) • c. Load into cell trough of Quattro • 6. Assay Protocol: • Quattro is controlled using IonWorks v2 software to perform the following steps: • a. Add 3.5 ul cells plus 3.5 ul external buffer to wells of Quattro Patch Plate • b. Circulate amphotericin B and internal buffer onto cells • c. Apply the following voltage protocol: Pulse 1: 15 mV for 300 milliseconds (ms), followed by Pulse 2: −120 mV for 400 ms, then Pulse 3: −15 mV for 400 ms, and finally Pulse 4: −120 mV to 40 mV over 500 ms (this is a voltage ramp). • d. Measure magnitude of inward potassium current at time point between 1200-1220 ms from start of Pulse 1 (i.e. during the voltage ramp phase). • e. Add 3.5 ul of diluted compounds (or DMSO) to wells and repeat steps c-d (final compound concentrations are 50 uM to 0.1 uM, for potent compounds 0.5 uM to 0.01 uM and each concentration is tested in quadruplicate—i.e. in 4 separate wells). • f. The difference between current magnitude pre vs. post-compound gives a measure of GIRK1/4 inhibition. • 7. Data analysis:
IC50 values are calculated by plotting the percentage of current inhibition (normalized to the DMSO-only control) as a function of compound concentration using standard data analysis software.

Sequence of GIRK1/4 (P48549 whole entry): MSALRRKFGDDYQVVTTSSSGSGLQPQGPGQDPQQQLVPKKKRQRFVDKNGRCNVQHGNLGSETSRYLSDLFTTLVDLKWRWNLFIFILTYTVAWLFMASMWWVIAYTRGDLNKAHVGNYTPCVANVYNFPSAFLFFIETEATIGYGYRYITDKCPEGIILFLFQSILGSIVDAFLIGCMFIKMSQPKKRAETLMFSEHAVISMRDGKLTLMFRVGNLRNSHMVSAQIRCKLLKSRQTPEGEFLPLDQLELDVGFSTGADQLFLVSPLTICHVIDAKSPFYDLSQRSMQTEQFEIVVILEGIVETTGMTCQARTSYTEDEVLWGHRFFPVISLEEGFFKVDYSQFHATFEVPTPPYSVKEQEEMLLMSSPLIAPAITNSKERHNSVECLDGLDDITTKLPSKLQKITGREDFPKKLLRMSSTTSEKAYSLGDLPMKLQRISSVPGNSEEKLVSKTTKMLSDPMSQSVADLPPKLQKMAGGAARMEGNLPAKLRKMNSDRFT
Sequence of GIRK1/4 (P48544 whole entry): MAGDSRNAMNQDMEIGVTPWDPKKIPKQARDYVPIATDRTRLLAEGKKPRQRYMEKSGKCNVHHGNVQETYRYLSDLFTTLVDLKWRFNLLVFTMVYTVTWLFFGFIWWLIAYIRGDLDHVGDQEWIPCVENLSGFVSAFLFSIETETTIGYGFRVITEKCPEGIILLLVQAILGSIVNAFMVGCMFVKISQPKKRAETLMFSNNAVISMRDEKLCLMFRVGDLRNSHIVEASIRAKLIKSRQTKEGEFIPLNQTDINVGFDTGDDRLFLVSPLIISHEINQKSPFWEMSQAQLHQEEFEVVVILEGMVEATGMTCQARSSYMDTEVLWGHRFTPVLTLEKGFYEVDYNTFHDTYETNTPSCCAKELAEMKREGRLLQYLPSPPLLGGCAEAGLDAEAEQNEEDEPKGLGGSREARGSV

Row | Compound | IC50 [nM]
1 | Cc1cc(=O)c2c(OCC(O)C(C)(C)O)ncc(Cl)c2n1-c1c(Cl)cccc1Cl (single isomer, unassigned) [Example 58, 8-chloro-1-(2,6-dichlorophenyl)-5-(2,3-dihydroxy-3-methylbutoxy)-2-methyl-1,6-naphthyridin-4(1H)-one] | 17
2 | Cc1cc(=O)c2c(OCC(O)C(C)(C)O)ncc(Cl)c2n1-c1c(Cl)cccc1Cl (single isomer, unassigned) [Example 59, 8-chloro-1-(2,6-dichlorophenyl)-5-(2,3-dihydroxy-3-methylbutoxy)-2-methyl-1,6-naphthyridin-4(1H)-one] | 14
3 | O=c1cc(CO)n(-c2c(Cl)cccc2Cl)c2c(Cl)cnc(CCC(O)CO)c12 (single isomer, unassigned) [Example 76, 8-chloro-1-(2,6-dichlorophenyl)-5-(3,4-dihydroxybutyl)-2-(hydroxymethyl)-1,6-naphthyridin-4(1H)-one] | 355
4 | O=c1cc(CO)n(-c2c(Cl)cccc2Cl)c2c(Cl)cnc(CCC(O)CO)c12 (single isomer, unassigned) [Example 77, 8-chloro-1-(2,6-dichlorophenyl)-5-(3,4-dihydroxybutyl)-2-(hydroxymethyl)-1,6-naphthyridin-4(1H)-one] | 366
5 | CC(C)(O)C(O)COc1ncc(Cl)c2c1c(=O)cc(CO)n2-c1c(Cl)cccc1Cl (stereo not drawn) [Example 4, 8-chloro-1-(2,6-dichlorophenyl)-5-(2,3-dihydroxy-3-methylbutoxy)-2-(hydroxymethyl)-1,6-naphthyridin-4(1H)-one] | 141
6 | O=c1cc(CO)n(-c2c(Cl)cccc2Cl)c2c(Cl)cnc(OCC3(CO)COC3)c12 [Example 5, 8-chloro-1-(2,6-dichlorophenyl)-2-(hydroxymethyl)-5-((3-(hydroxymethyl)oxetan-3-yl)methoxy)-1,6-naphthyridin-4(1H)-one] | 235
7 | O=c1cc(CO)n(-c2c(Cl)cccc2Cl)c2c(Cl)cnc(OCC3COC3)c12 [Example 10, 8-chloro-1-(2,6-dichlorophenyl)-2-(hydroxymethyl)-5-(oxetan-3-ylmethoxy)-1,6-naphthyridin-4(1H)-one] | 120
8 | COCCOCCOCCOCCOCCOCCOc1ncc(Cl)c2c1c(=O)cc(C)n2-c1c(Cl)cccc1Cl [Example 15, 5-(2,5,8,11,14,17-hexaoxanonadecan-19-yloxy)-8-chloro-1-(2,6-dichlorophenyl)-2-methyl-1,6-naphthyridin-4(1H)-one] | 25
9 | Cc1cc(=O)c2c(NCC(O)C(=O)NCCO)ncc(Cl)c2n1-c1c(Cl)cccc1Cl (stereo not drawn) [Example 17, 3-((8-chloro-1-(2,6-dichlorophenyl)-2-methyl-4-oxo-1,4-dihydro-1,6-naphthyridin-5-yl)amino)-2-hydroxy-N-(2-hydroxyethyl)propanamide] | 60
10 | Cc1cc(=O)c2c(OCC(O)CO)cncc2n1-c1c(Cl)cc(C#N)cc1Cl (stereo not drawn) [Example 18, 3,5-dichloro-4-(5-(2,3-dihydroxypropoxy)-2-methyl-4-oxo-1,7-naphthyridin-1(4H)-yl)benzonitrile] | 1860

Continued, values first:

Row | IC50 [nM] | Compound
11 | 299 | O=c1cc(CO)n(-c2c(Cl)cccc2Cl)c2c(Cl)cnc(CC(O)CO)c12 (single isomer, unassigned) [Example 79, 8-Chloro-1-(2,6-dichlorophenyl)-5-(2,3-dihydroxypropyl)-2-(hydroxymethyl)-1,6-naphthyridin-4(1H)-one]
12 | 365 | O=c1cc(CO)n(-c2c(Cl)cccc2Cl)c2c(Cl)cnc(CC(O)CO)c12 (single isomer, unassigned) [Example 80, 8-Chloro-1-(2,6-dichlorophenyl)-5-(2,3-dihydroxypropyl)-2-(hydroxymethyl)-1,6-naphthyridin-4(1H)-one]
13 | 278 | O=c1cc(CO)n(-c2c(Cl)cccc2Cl)c2c(Cl)cnc(C(O)CO)c12 (single isomer, unassigned) [Example 83, 8-Chloro-1-(2,6-dichlorophenyl)-5-(1,2-dihydroxyethyl)-2-(hydroxymethyl)-1,6-naphthyridin-4(1H)-one]
14 | 116 | O=c1cc(CO)n(-c2c(Cl)cccc2Cl)c2c(Cl)cnc(C(O)CO)c12 (single isomer, unassigned) [Example 84, 8-Chloro-1-(2,6-dichlorophenyl)-5-(1,2-dihydroxyethyl)-2-(hydroxymethyl)-1,6-naphthyridin-4(1H)-one]
15 | 104 | O=c1cc(CO)n(-c2c(Cl)cccc2Cl)c2c(Cl)cnc(OC[C@@H](O)CO)c12 [Example 1, (S)-8-Chloro-1-(2,6-dichlorophenyl)-5-(2,3-dihydroxpropoxy)-2-(hydroxymethyl)-1,6-naphthyridin-4(1H)-one]
16 | 159 | O=c1cc(CO)n(-c2c(Cl)cccc2Cl)c2c(Cl)cnc(OC[C@H](O)CO)c12 [Example 2, (R)-8-chloro-1-(2,6-dichlorophenyl)-5-(2,3-dihydroxypropoxy)-2-(hydroxymethyl)-1,6-naphthyridin-4(1H)-one]
17 | 131 | O=c1cc(CO)n(-c2c(Cl)cccc2Cl)c2c(Cl)cnc(OCC(O)CO)c12 (stereo not drawn) [Example 3, 8-chloro-1-(2,6-dichlorophenyl)-5-(2,3-dihydroxypropoxy)-2-(hydroxymethyl)-1,6-naphthyridin-4(1H)-one]
18 | 431 | O=c1cc(CO)n(-c2c(Cl)cccc2Cl)c2c(Cl)cnc(OCCOCCOCCOCCO)c12 [Example 7, 8-chloro-1-(2,6-dichlorophenyl)-5-(2-(2-(2-(2-hydroxyethoxy)ethoxy)ethoxy)ethoxy)-2-(hydroxymethyl)-1,6-naphthyridin-4(1H)-one]
19 | 257 | O=c1cc(CO)n(-c2c(Cl)cccc2Cl)c2c(Cl)cnc(OC(CO)CO)c12 [Example 9, 8-chloro-1-(2,6-dichlorophenyl)-5-((1,3-dihydroxypropan-2-yl)oxy)-2-(hydroxymethyl)-1,6-naphthyridin-4(1H)-one]
20 | 73 | COCCOCCOc1ncc(Cl)c2c1c(=O)cc(CO)n2-c1c(Cl)cccc1Cl [Example 11, 8-chloro-1-(2,6-dichlorophenyl)-2-(hydroxymethyl)-5-(2-(2-methoxyethoxy)ethoxy)-1,6-naphthyridin-4(1H)-one]
21 | 36 | O=c1cc(CO)n(-c2c(Cl)cccc2Cl)c2c(Cl)cnc(OCCO)c12 [Example 12, 8-chloro-1-(2,6-dichlorophenyl)-5-(2-hydroxyethoxy)-2-(hydroxymethyl)-1,6-naphthyridin-4(1H)-one]
22 | 71 | O=c1cc(CO)n(-c2c(Cl)cccc2Cl)c2c(Cl)cnc(NCCOCCOCCOCCO)c12 [Example 13, 8-chloro-1-(2,6-dichlorophenyl)-5-((2-(2-(2-(2-hydroxyethoxy)ethoxy)ethoxy)ethyl)amino)-2-(hydroxymethyl)-1,6-naphthyridin-4(1H)-one]
23 | 52 | Cc1cc(=O)c2c(OCCOCCOCCOCCOCCO)ncc(Cl)c2n1-c1c(Cl)cccc1Cl [Example 14, 8-chloro-1-(2,6-dichlorophenyl)-5-((14-hydroxy-3,6,9,12-tetraoxatetradecyl)oxy)-2-methyl-1,6-naphthyridin-4(1H)-one]
24 | 176 | Cc1cc(=O)c2c(NCCOCCOCCOCCO)ncc(Cl)c2n1-c1c(Cl)cccc1C#N [Example 16, 3-chloro-2-(8-chloro-5-((2-(2-(2-(2-hydroxyethoxy)ethoxy)ethoxy)ethyl)amino)-2-methyl-4-oxo-1,6-naphthyridin-1(4H)-yl)benzonitrile]
